Patent US4329295A, “24-Cyclopropylcholene-3β, 22-diols and esters thereof” (G. D. Searle & Co., priority 1981, dated 1982)

Test system: HMG Co A reductase
Experiment: Reduction of HMG Co A reductase activity in liver microsomes of rats treated with 20,25-diazacholesterol and test compound
Assay type: in vivo, rat
Conditions: male CD rats, test compound given last 3 days with 20,25-diazacholesterol, [14C]-mevalonic acid formation vs control
Experimental: Male rats of the CD strain from Charles River weighing 180-250 g., initially being kept on a regular laboratory diet, are used. The rats are maintained in reverse light-cycle room for 3-6 days. 20,25-Diazacholesterol is administered for a total of 6 days at a dose of 5 mg/kg/day (IG). The last 3 days the test compound is administered along with the 20,25-diazacholesterol. Both compounds are given 2 hours prior to the test on last day. The rats are anesthetized with ether, sacrificed, and the livers removed. Liver microsomes are collected by differential centrifugation after homogenation. Liver microsomes are used as the source of the HMG Co A reductase. Details of the assay are reported in L. W. White and H. Rudney, Biochemistry 9, 2713 (1970); Brown et al., J. Biol. Chem. 248, 4731 (1973); and C. A. Edwards, Biochem. Biophys. Acts 409, 39 (1975). The percent change in formation of [^ 14 C]-mevalonic acid from [^14 C]-HMG Co A is used as a measure of enzyme activity for treated groups versus control groups of rats. If the treated groups have less activity, and the decrease is statistically significant at P≤0.05, the compound is rated active.

## C[C@@H]([C@H]1CC[C@H]2[C@@H]3CC=C4C[C@@H](O)CC[C@]4(C)[C@H]3CC[C@]12C)[C@@H](O)CCC1CC1 [24-cyclopropylchol-5-ene-3β,22S-diol]
0.5 mg/kg (IG)
  inhibition of HMG Co A reductase activity: 32%
5 mg/kg (IG)
  inhibition of HMG Co A reductase activity: 79%
